Laboratory results: PMC10208570, “Peptidomimetic antibiotics disrupt the lipopolysaccharide transport bridge of drug-resistant Enterobacteriaceae” (Science Advances, 2023)
≈ marks a conversion by molar mass, not a printed value. Where a SMILES comes first, the peptide text is derived from it. Bridges are numbered along the chain shown (N, C = ends). [ ]: non-standard residue; d: D form. Hyp = O=C(O)[C@@H]1C[C@@H](O)CN1; Pen = CC(C)(S)[C@H](N)C(=O)O; dDab = NCC[C@@H](N)C(=O)O; Dab = NCC[C@H](N)C(=O)O

Tests used:
[1] = test system: K. pneumoniae NCTC 13443 (NDM-1) LptA Q62L mutant; experiment: microbe, parasite or virus in culture; conditions: for MIC K. pneumoniae NCTC 13443 (NDM-1) Q62L mutant: CLSI method, clone harboring LptA Q62L
Procedure: (§1) MIC assays [Clinical and Laboratory Standards Institute (CLSI) methodology] and serial passage studies were performed as described by Luther et al. ([6]). […] Resistant mutants were isolated, and their MIC values were determined and sent to Microbes NG (Birmingham, United Kingdom) for whole-genome sequencing and bioinformatic analysis.

[2] = test system: E. coli ATCC 25922 LptA Q62L mutant; experiment: microbe, parasite or virus in culture; conditions: CLSI method; clone harboring LptA Q62L
Procedure: as §1

[3] = test system: E. coli ATCC 25922 (parent / WT); experiment: microbe, parasite or virus in culture; conditions: for MIC E. coli ATCC 25922 Parent: CLSI method, parent strain
Procedure: as §1

[4] = test system: K. pneumoniae NCTC 13443 (NDM-1) (parent / WT); experiment: microbe, parasite or virus in culture; conditions: CLSI method; parent strain
Procedure: as §1

[5] = test system: K. pneumoniae ATCC 43816 (parent / WT); experiment: microbe, parasite or virus in culture; conditions: ATCC 43816
Procedure: as §1

Plasma protein binding [6] = format: in vitro ADME, mouse; conditions: mouse, plasma, pH 7.5
Procedure: (§2) After ultrafiltration, protein binding was determined by subtracting the percentage of compound in ultrafiltrate from the total amount of compound in spiked plasma (table S4A).

Plasma protein binding [7] = format: in vitro ADME, human; conditions: human, plasma, pH 7.5
Procedure: as §2

human red blood cells = experiment: Haemolysis; format: cell-based; conditions: PBS-washed human red blood cells; 1 h at 200 mg/liter, 37°C; OD 540 nm; versus 100% lysis control 2.5% Triton X-100; biological replicates
Procedure: To test their hemolytic potential, compounds were incubated in the presence of phosphate-buffered saline (PBS)–washed human red blood cells. After 1-hour incubation at 200 mg/liter and 37°C, the samples were centrifuged (3220g), the supernatants were diluted in Dulbecco’s PBS, and optical density at 540 nm was determined. The hemolysis induced by the compound was calculated versus a 100% lysis control prepared with 2.5% Triton X-100 (table S4A).

in vitro = format: cell-based; conditions: human
Procedure: The cytotoxicity of compounds was determined by determining the number of viable cells using the Sigma Cell Counting Kit-8 (WST-8). HeLa cells were incubated at 37°C and 5% CO2 for 24 hours, after which the medium was replaced with fresh medium containing dilutions of compounds. […]

[8] = test system: Klebsiella pneumoniae ATCC 43816 LptA L116Q mutant; experiment: microbe, parasite or virus in culture; conditions: Table S9 panel
Procedure: as §1

[9] = test system: Klebsiella pneumoniae ATCC 43816 LptA I36S mutant; experiment: microbe, parasite or virus in culture; conditions: Table S9 panel
Procedure: as §1

[10] = test system: Klebsiella pneumoniae ATCC 43816 LptA I36N mutant; experiment: microbe, parasite or virus in culture; conditions: Table S9 panel
Procedure: as §1

[11] = test system: Escherichia coli ATCC 25922 LptA E84D mutant; experiment: microbe, parasite or virus in culture; conditions: Table S9 panel
Procedure: as §1

[12] = test system: Escherichia coli ATCC 25922 KdsD mutant; experiment: microbe, parasite or virus in culture; conditions: Table S9 panel; other mutation
Procedure: as §1

[13] = test system: Klebsiella pneumoniae ATCC 43816 LapB mutant; experiment: microbe, parasite or virus in culture; conditions: Table S9 panel; other mutation
Procedure: as §1

[14] = test system: Klebsiella pneumoniae NCTC 13443 LpxC, LpxD mutant; experiment: microbe, parasite or virus in culture; conditions: Table S9 panel; other mutation
Procedure: as §1

[15] = test system: Klebsiella pneumoniae NCTC 13443 YejM mutant; experiment: microbe, parasite or virus in culture; conditions: Table S9 panel; other mutation
Procedure: as §1

[16] = test system: K. pneumoniae ATCC 43816 LptA Q62L mutant; experiment: microbe, parasite or virus in culture; conditions: Table S9 panel
Procedure: as §1

[17] = test system: Klebsiella pneumoniae ATCC 43816 PglJ, PhnJ, ThiH mutant; experiment: microbe, parasite or virus in culture; conditions: Table S9 panel; other mutation
Procedure: as §1

[18] = test system: Klebsiella pneumoniae NCTC 13443 LptA I36S mutant; experiment: microbe, parasite or virus in culture; conditions: Table S9 panel
Procedure: as §1

LptAm = biological target: T1, LptAm (Escherichia coli, UniProt P0ADV1); experiment: biochemical; format: binding, E. coli
T1 construct: His6-GB1 (N, cleaved yes); made in house; host or cells: E. coli BL21 (DE3)
Procedure: (§3) Protein stocks were purified and concentrated in buffer 1 [50 mM Na-Pi (pH 7) and 150 mM NaCl] and, if necessary, diluted to desired concentrations using buffer 2 [50 mM Na-Pi (pH 7), 150 mM NaCl, and 0.05% Tween 20]. Peptide stocks and fluorescently labeled peptide stocks were made in buffer 2. Every serial dilution consisted of 24 wells, the first well with the highest concentrate and the last well (well 24) with the lowest. First, 50 μl of buffer 2 was added to the wells 2 to 24 of each serial dilution. Then, 100 μl of concentrated unlabeled peptide/protein in their respective buffers was added to the first well. Fifty microliters were taken from the first well and added to the second well for a 1:1 serial dilution and continued for the 24 wells. […] Plates were covered with adhesive seals and left to incubate overnight at 4°C before FP measurements the next day. Anisotropy was measured using the Tecan Safire2 plate reader using a 10-nm bandwidth and setting the excitation and emission wavelengths to 635 and 670 nm, respectively. The G-factor (G) was also determined empirically as 1.094 for the instrument and included in all the anisotropy calculations.
(§4) For the indirect binding assays, r was calculated in the same manner as the direct binding assays. […] The control was subtracted from r to yield r′. Data were fit to a sigmoidal interpolation model on GraphPad Prism 9, and an IC50 was generated for each unlabeled peptide or protein measured.

LptAmQ62L = biological target: T2, LptAmQ62L (Escherichia coli, UniProt P0ADV1, Q62L); experiment: biochemical; format: binding, E. coli
T2 construct: His6-GB1 (N, cleaved yes); made in house; host or cells: E. coli BL21 (DE3)
Procedure: as §3, §4

T2 sequence (P0ADV1 28-159 Q62L): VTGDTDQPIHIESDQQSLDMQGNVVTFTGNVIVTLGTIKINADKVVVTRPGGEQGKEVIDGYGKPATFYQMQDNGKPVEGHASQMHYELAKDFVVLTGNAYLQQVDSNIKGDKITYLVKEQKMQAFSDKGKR
T1 sequence (P0ADV1 28-159): as the sequence (P0ADV1 28-159 Q62L) above, with L35Q counted along it

SMILES	MIC K. pneumoniae NCTC 13443 (NDM-1) Q62L mutant [1]	MIC E. coli ATCC 25922 Q62L mutant [2]	MIC E. coli ATCC 25922 Parent [3]	MIC K. pneumoniae NCTC 13443 (NDM-1) Parent [4]	MIC K. pneumoniae ATCC 43816 Parent [5]	fraction unbound at 30 min, 10 mg/liter (Plasma protein binding [6])	fraction unbound at 30 min, 10 mg/liter (Plasma protein binding [7])	Haemolysis % at 0.2 g/L (human red blood cells)	IC50 at 48 h (in vitro)	further results
CC[C@H](C)[C@H](NC(=O)[C@@H](NC(=O)[C@@H]1C[C@@H](O)CN1C(=O)[C@@H](N)C(C)C)[C@@H](C)CC)C(=O)N[C@@H](Cc1ccc(O)cc1)C(=O)N[C@@H]1C(=O)N[C@@H](CC(N)=O)C(=O)N[C@@H](CCCNC(=N)N)C(=O)N[C@@H](CCN)C(=O)N[C@@H]([C@@H](C)O)C(=O)N[C@H](CCN)C(=O)N[C@@H](CCCCN)C(=O)N[C@H](C(=O)N[C@@H](CCN)C(=O)N[C@@H](CCCNC(=N)N)C(=O)N[C@@H](Cc2ccc(O)cc2)C(=O)O)CSSC1(C)C [Compound 4] (H-V[Hyp]IIY[Pen]NR[Dab]T[dDab]KC[Dab]RY-OH; disulfide 6-13)	4 micrograms per milliliter	0.25 micrograms per milliliter	0.063 micrograms per milliliter	1 micrograms per milliliter	0.25 micrograms per milliliter	0.14	0.09	0%	536 µM	
CC[C@H](C)[C@H](NC(=O)[C@@H](NC(=O)[C@@H]1C[C@@H](O)CN1C(=O)[C@@H](N)C(C)C)[C@@H](C)CC)C(=O)N[C@@H](Cc1ccc(O)cc1)C(=O)N[C@@H]1C(=O)N[C@@H](CC(N)=O)C(=O)N[C@@H](CCCNC(=N)N)C(=O)N[C@@H](CCN)C(=O)N[C@@H]([C@@H](C)O)C(=O)N[C@H](CCN)C(=O)N[C@@H](CCCCN)C(=O)N[C@H](C(=O)N[C@@H](CCN)C(=O)N[C@@H](CCN)C(=O)N[C@@H](Cc2ccc(O)cc2)C(=O)O)CSSC1(C)C [Compound 5] (H-V[Hyp]IIY[Pen]NR[Dab]T[dDab]KC[Dab][Dab]Y-OH; disulfide 6-13)	4 micrograms per milliliter	0.25 micrograms per milliliter	0.063 micrograms per milliliter	1 micrograms per milliliter	0.25 micrograms per milliliter	0.13	0.18	0%	1270 µM	MIC Klebsiella pneumoniae NCTC 13443 LptA Q62L (5x) ([1]; Table S9 panel): 8 µg/mL (≈ 4.18 µM); MIC Klebsiella pneumoniae ATCC 43816 LptA L116Q (1x) [8]: 1 µg/mL (≈ 0.522 µM); MIC Klebsiella pneumoniae ATCC 43816 LptA I36S (1x) [9]: 1 µg/mL (≈ 0.522 µM); MIC Klebsiella pneumoniae ATCC 43816 LptA I36N (1x) [10]: 1 µg/mL (≈ 0.522 µM); MIC Escherichia coli ATCC 25922 LptA E84D (1x) [11]: 1 µg/mL (≈ 0.522 µM); MIC Escherichia coli ATCC 25922 KdsD (2x) [12]: 0.5 µg/mL (≈ 0.261 µM); MIC Klebsiella pneumoniae ATCC 43816 LapB (1x) [13]: 0.5 µg/mL (≈ 0.261 µM); MIC Klebsiella pneumoniae NCTC 13443 LpxC, LpxD (1x) [14]: 0.5 µg/mL (≈ 0.261 µM); MIC Escherichia coli ATCC 25922 WT ([3]; Table S9 panel, WT): 0.125 µg/mL (≈ 0.0653 µM); MIC Klebsiella pneumoniae NCTC 13443 YejM (1x) [15]: 2 µg/mL (≈ 1.04 µM); MIC Klebsiella pneumoniae ATCC 43816 LptA Q62L (4x) [16]: 4 µg/mL (≈ 2.09 µM); MIC Klebsiella pneumoniae ATCC 43816 PglJ, PhnJ, ThiH (1x) [17]: 0.5 µg/mL (≈ 0.261 µM); MIC Klebsiella pneumoniae NCTC 13443 LptA I36S (2x) [18]: 4 µg/mL (≈ 2.09 µM); IC50 (LptAm): 0.0186 ± 0.0011 µM; Ki (LptAm): 0.0031 ± 0.0002 µM; IC50 (LptAmQ62L): 0.0139 ± 0.0023 µM; Ki (LptAmQ62L): 0.0094 ± 0.0015 µM
